The text below walks through data of paper PMC8942850, “Boron clusters as broadband membrane carriers” (Nature, 2022).

The test system of data set [1] is HeLa cells. The data set can be described thus: MTT viability with B12Br12^2− or R8. Also on record: dose or concentration left out as unconfirmed. The note with it: 3 h in HKR + 24 h medium, mean of five measurements. How it is done: (§1) The incubation mixtures were replaced with DMEM + 10% FBS + 0.5 mg ml^–1 MTT. For the viability assays in the presence of B12Br12^2− or R8, HeLa, GT1-7, ARPE-19 and A549 cells were seeded the day before in 96-well plates at 6,000 cells per well. Cells were incubated with B12Br12^2− or R8 dissolved in HKR buffer for 3 h and, thereafter, incubated for 24 h with complete medium before incubating with complete medium and 0.5 mg ml^−1 MTT. For viability studies in the presence of MMAF, HeLa cells were incubated with MMAF and B12Br12^2− diluted in DMEM (without serum or antibiotics) for 3 h. Cells were washed with 0.1 mg ml^−1 heparin and further incubated for 21 h in complete medium and 2 h in complete medium containing 0.5 mg ml^−1 MTT. For all types of assays, after 2 h of incubation, the medium was carefully removed, and formazan crystals dissolved by addition of DMSO. The absorbance at 570 nm was measured with a plate reader (Tecan Infinite F200Pro) and the data normalized to the value of untreated cells (100% viability). Data were analysed with R (v. 4.0.3)[54].
(§2) Cells were incubated with 7 µM phalloidin-TRITC (red) in the absence (left) and presence of 50 µM ^AcR8 (middle) or 50 µM of B12Br12^2− cluster (right) in HKR buffer for 3 h, subsequently stained with Hoechst (blue), washed with DMEM without phenol red, and imaged by confocal fluorescence microscopy; bright-field images in insets. Micrographs from each cell line were processed independently, experiments were performed twice. e, MTT viability assay of the corresponding cell lines (HeLa, GT1-7, ARPE-19 and A549, from left to right) at different concentrations (0, 25, 75, 250, and 500 µM) of B12Br12^2− (black) or ^AcR8 (red); data are mean ± s.d. of five measurements. f, Confocal images of HeLa cells after incubation with 500 nM phalloidin-TRITC and different concentrations B12Br12^2−; the images correspond to those of Fig. 4 in the main text, but are shown with increased brightness to facilitate observation of the actin filaments. Representative images of two biological replicates. All scale bars are […], except for panel f (50 µm). Source data

The test system of data set [2] is adenocarcinoma human alveolar basal epithelial cells A549. The experiment in a line: MTT viability with B12Br12^2− or R8. Also on record: dose or concentration left out as unconfirmed. The note with it: 3 h in HKR + 24 h medium, mean of five measurements. The procedure:
as §1, §2

The nature of data set [3]: U-tube transport experiment across a bulk chloroform layer. The note with it: trans: 2 mM HPTS, pH 7.4. The source says: U-tube transport experiments, across a bulk chloroform layer, unambiguously confirmed that the brominated cluster served as a non-covalent carrier across a hydrophobic bulk barrier (Extended Data Fig. 2a, b). To quantitatively characterize the transport efficiency of the new cluster carriers, the normalized fluorescence responses in the vesicle experiments (Fig. 2b) were plotted against cluster concentration to produce dose–response curves (Fig. 2c and Extended Data Fig. 3a). […] This activity rivals the pyrenebutyrate (1) gold standard in the field (Ea ≈ 5)[18], which we used throughout as a control.
The U-tubes were home-made, similarly to those of Rebek and co-workers[52] and Matile and co-workers[19], and consisted of a small beaker with a central glass barrier separating the two aqueous phases, namely cis ([…]) and trans (receiving phase), but enabling the placement of an interfacing chloroform layer below the cis and trans phases. A 3 ml portion of CHCl3 was located in the U-tube and 1 ml of the cis and trans phases were added. The organic phase was stirred at 700 r.p.m. at room temperature. Aliquots (20 μl) from the aqueous trans phase were taken at different times, diluted to 450 μl with buffer (10 mM Tris, 107 mM NaCl, pH 7.4) and measured by fluorescence. […]

The test system of data set [4] is HeLa cells. The data set can be described thus: Flow cytometry of total TAMRA-R8 uptake. Format: cell-based. Conditions: for mean_of_medians: Extended Data Fig.5a, mean of n = 3. The procedure:
HeLa cells were seeded at 10,000 cells per well in 96-well plates. The next day, they were incubated for 1 h with the indicated compounds diluted in HKR. Cells were subsequently washed for 5 min with HKR containing 0.1 mg ml^−1 heparin, washed again with HKR and trypsinized. Trypsin was neutralized with PBS containing 2% FBS and 5 mM EDTA. TAMRA fluorescence was excited with a green laser (532 nm) and measured on a Guava easyCyte BG HT collecting the emission at 620/52 nm (Orange-G channel) and using InCyte v.3.2 (GuavaSoft, Millipore). Data were analysed with R (v.4.0.3)[54] and the packages CytoExploreR (v.1.0.8)[56] and ggcyto (v.1.18.0)[57] Cells with typical FSC and SSC parameters were selected and the median fluorescence intensity calculated for each sample. Each condition was measured in triplicate.
Cells were incubated with 1 µM peptide, in the absence or presence of 10 µM cluster for 1 h. […] After medium removal and solubilization with DMSO, the absorbance at 570 nm was measured. Values were normalized to the untreated cell control (100%). Data are mean ± s.d. of three replicates. Source data
Background: A flow cytometer gives signals particle by particle.

B12Br12^2−: the mean_viability was determined as 104.374% with HeLa cells [1] (25 as printed), 100.045% with HeLa cells [1] (75 as printed), 106.289% in data set [2] (25 as printed) and 109.955% in data set [2] (75 as printed). Also, in data set [3] (cis: 40 μM cluster and 20 mM DPX), the “Transport of DPX across chloroform, without peptide cargo” value was “faster and more efficient transport of DPX”. The “Transport of DPX across chloroform, with peptide cargo” value in data set [3] (cis: 40 μM cluster, 20 μM WR7, 20 mM DPX, 10 mM Tris, 107 mM NaCl, HPTS quenching) was “the fastest and most efficient transport of DPX”. Also, the mean_of_medians in the data set on HeLa cells [4] (10 uM cluster, Tm-R8 0 uM) stood at 56.9232; with HeLa cells [4] (10 uM cluster, Tm-R8 1 uM), 648.983; in the data set with HeLa cells [4] (50 uM cluster, Tm-R8 0 uM) it was 50.2824; in the data set on HeLa cells [4] (50 uM cluster, Tm-R8 1 uM), 905.363. In addition, the “Enhancement of total TAMRA-R8 uptake (flow cytometry)” value in the data set on HeLa cells [4] (HeLa, 1 µM TAMRA-R8, 10 or 50 µM cluster, 1 h) is recorded as “most active carrier”.
